Results on one molecule are retold here after US20150119378A1, “AZETIDINYLOXY-, PYRROLIDINYLOXY-, AND PIPERIDINYLOXY-SUBSTITUTED METANICOTINES AS NEURONAL NICOTINIC ACETYLCHOLINE RECEPTOR LIGANDS” (priority 2013, published 2015).

Series [1] relates to scopolamine induced deficit in mice. As to the kind of experiment: Morris Water Maze, scopolamine-induced memory (spatial) deficit. The series is classed as in vivo, male CD-1 mice. The procedure:
Compounds of the present invention were tested in the Morris Water Navigation Task to characterize the cognitive-enhancing properties, namely through a chemically-induced memory (spatial) deficit task in the mouse.
The animals were male CD-1 mice (Charles River, Raleigh, N.C., USA), with 25-30 g body weight range on receipt. Animals were stabilized for at least 5 days after delivery in plastic cages on alpha-dry bedding with free access to food and water.
Test Compound, (2S,4E)-N-methyl-5-(5-((3R)-1-(4,4,4-trifluorobutanoyl)pyrrolidin-3-yloxy)-6-chloro-3-pyridinyl)-4-penten-2-amine, or a pharmaceutically acceptable salt thereof, such as the hemi-galactarate, was dissolved in deionized water (salt/base ratio=1.25).
The treatment schedule included scopolamine (0.75 mg/kg; s.c.) administered 15 minutes before the first training session each training day in combination with Test Compound (0.3, 1, 3 mg/kg of base) administered i.g. 25 minutes before the first training session each training day.
Scopolamine (0.75 mg/kg; s.c.) alone was administered 15 minutes before the training session each training day.
Cognitive activity was evaluated using an acquisition procedure in the Morris water maze whereby animals are administered a cognitively impairing compound (scopolamine) alone or in combination with a Test Compound during training sessions on days 1-4. Performance is evaluated on day 5 during a probe trial without any drug on board.
Preliminary analysis used one-way analysis of variance followed by post-hoc t-tests (Dunnetts) where applicable.

In series [2] the test system is memory (recognition) task in the rat. The experiment in a line: Object recognition task (NOR). It counts as in vivo, male Sprague-Dawley rats. The procedure:
The compounds of the present invention were assessed for cognitive enhancing properties in the object recognition task in rats. In more detail, the compounds of the present invention, specifically Test Compound, (2S,4E)-N-methyl-5-(5-((3R)-1-(4,4,4-trifluorobutanoyl)pyrrolidin-3-yloxy)-6-chloro-3-pyridinyl)-4-penten-2-amine, or a pharmaceutically acceptable salt thereof, such as the hemi-galactarate, were tested to characterize the cognitive-enhancing properties of in a memory (recognition) task in the rat following oral dosing. Reference is made, for example, to Ennaceur A., et al., (1988), A New One-Trial Test for Neurobiological Studies of Memory in Rats, Behavioral Brain Research, 31, pp. 47-59.
The animals used were male Sprague-Dawley rats (Charles River, Raleigh, N.C., USA), of 134-173 g body weight range on receipt. The animals were stabilized for at least 6 days after delivery in plastic cages on alpha-dry bedding with access to food and water (2 per cage).
The Test Compound was dissolved in deionized water. The treatment schedule was 0.001, 0.01 and 0.1 mg/kg of base (salt/base ratio=1.25; equivalent to […]) or vehicle was administered p.o. 6H before exploratory, acquisition, and recall object recognition trials. All treatments were separated by 24 h, however although the acclimation and acquisition trials were separated by 24 h, the recall trial occurred 30 h after the acquisition trial (i.e. 6 h after the third dose).
The method of evaluation included cognitive activity using the method of Luine et al. A statistical analysis was performed using parametric distribution (exploration time): Student's t-test; (% RI): Kruskall-Wallace One-way ANOVA on Ranks with Dunn's method for post-hoc analyses.

Setting [3] is: 0.3 mg/kg i.g. with scopolamine 0.75 mg/kg s.c., vs scopolamine alone, Dunnett's p<0.01.

For the molecule `CN[C@@H](C)C/C=C/c1cnc(Cl)c(O[C@@H]2CCN(C(=O)CCC(F)(F)F)C2)c1` [Test Compound, (2S,4E)-N-methyl-5-(5-((3R)-1-(4,4,4-trifluorobutanoyl)pyrrolidin-3-yloxy)-6-chloro-3-pyridinyl)-4-penten-2-amine], in series [1] (setting [3]), the “mean distance from the platform (proximity) in the probe trial” value was “significantly improved performance” and the “time spent in the target quadrant in the probe trial” value is “significantly improved performance”. In addition, the “time spent in the target quadrant in the probe trial” value in series [1] (3.0 mg/kg i.g. with scopolamine 0.75 mg/kg s.c., vs scopolamine alone, Dunnett's p<0.05) is listed as “significantly improved performance”. The “spatial memory performance (summary)” value in series [1] (doses of 0.3 and 3.0 mg/kg, animals cognitively impaired by scopolamine) is “significantly improved spatial memory performance”. For the same molecule, the “overt behavioral side effects” value in series [2] (0.001, 0.01, 0.1 mg/kg p.o., rats) is on record as “No overt behavioral side effects were observed”. In addition, the “recognition index (% RI) compared to vehicle-treated group” value in series [2] (all dose groups 0.001-0.1 mg/kg p.o., statistical significance at the two higher doses) is reported as “improved”. Further, the “time investigating object B (novel) versus object A (familiar)” value in series [2] (any dose (0.001, 0.01 or 0.1 mg/kg p.o.), recall 6 h after third daily dose) is on record as “spent significantly (P<0.05) more time investigating object B (novel) than object A (familiar)”. In addition, in series [2] (p.o., rats, non-parametric statistical analyses), the “MED for % RI” value turned out to be 0.01 mg/kg. In addition, the “episodic memory, % RI (summary)” value in series [2] (young rats, dose range of 0.01 to 0.1 mg/kg, strong trend at 0.001 mg/kg) is “facilitates episodic memory”.
